# Experimental data published in US11998610B2, “Conjugates and methods of using the same” (Flagship Pioneering Innovations V, Inc., priority 2018, dated 2024).
# Non-standard residues stand in square brackets, D forms with d. Residues, ends and D or L forms follow the SMILES beside them. *: point of attachment. Myristoyl = CCCCCCCCCCCCCC(=O)*; Octanoyl = CCCCCCCC(=O)*
# Legend:
# [1] = test system: WT ClbP; experiment: Assay with purified ClbP protein (LCMS); assay type: biochemical, E. coli; settings: 20 μM WT ClbP, room temperature, 24 h
# Protocol: This example is representative of the method described in Example 91 the soluble peptidase domain (amino acids 38 to 375) of ClbP or the catalytically inert mutant S95A was cloned into pET28a using previously defined boundaries as a starting point (Brotherton, J. Am. Chem. Soc., 135:3359-3362, 2013).
# WT ClbP or S95A ClbP was isolated as an N-terminally tagged HiS6-SUMO1-fusion protein from […] using E. coli BL21(DE3)RIPL to express the protein. The cells were lysed in 30 mM Tris pH 8.0, 300 mM NaCl, 10% (v/v) glycerol, benzonase (Sigma-Millipore), lysozyme, B-per (ThermoFisher), and Y-per (ThermoFisher). The lysate was clarified via centrifugation (13,000 g, 20 min), and the supernatant was incubated with HiBond Ni-NTA agarose (5 mL). The resin was subsequently washed with wash buffer (30 mM Tris pH 7.5, 250 mM NaCl, 10 mM imidazole, 3% (v/v) glycerol, and 2 mM TCEP). The resin was incubated at 30° C. for 1 h with 1.4 mg ULP1 protease. The resin was then washed with an additional fraction of wash buffer. Centrifuge filtration was used to concentrate the protein, and the concentrated protein was subsequently applied to a 16/600 Superdex 200 size exclusion column with an isocratic elution of 25 mM HEPES, 25 mM Tris pH 7.4, 325 mM NaCl, 10 mM KCl and 3% (v/v) glycerol at a flow rate of […]. The fractions containing the protein were determined by SDS-PAGE, combined, and concentrated by centrifuge filtration. 3 mM TCEP was added to the concentrated protein, which was then aliquoted, flash frozen in liquid N2, and stored at −80° C.
# This example is representative of the method described in Example D, ClbP was incubated with test compounds in an in vitro assay. In a typical assay, 0, 1, or 20 μM purified WT or S95A ClbP was incubated with 100 or 500 μM compound in reaction buffer (50 mM Tris-HCl pH 7.5, 37.5 mM NaCl) at room temperature for 24 h. The total volume of this reaction was 150 μL.
# After 24 h, 2 volumes of acetonitrile (300 μL) were added to the reaction to quench the solution.
# The reaction was centrifuged (4,000 g, 15 min), and then the supernatant was analyzed by LCMS. 5 μL of the supernatant was injected onto an Acquity UPLC BEH C18 1.7 μm 2.1×100 column. Buffer A was 0.1% (v/v) formic acid in water and buffer B was 0.1% (v/v) formic acid in acetonitrile. The flow rate was 0.5 mL/min. The initial % B was 10, which was held for 30 s then ramped up to 90% B over 3 min, held at 90% B for 1 min, ramped down to 10% B over 15 s, and then held at 10% B for 15 s. The UV-Vis spectrum from 210-400 nm was monitored with 3.6 nm resolution. Positive and negative mode ESI were monitored from 100-1000 m/z with a 20 V cone voltage at 5 Hz sampling frequency in centroid collection.
# The relative starting material remaining in the WT ClbP reaction was determined by LCMS and then compared to the residual starting material in the no-enzyme and catalytically inert enzyme (S95A ClbP) reactions. In an ideal case, the amount of residual starting material in the WT ClbP reaction was <25% of the amount in the S95A ClbP and no-enzyme conditions. In an acceptable case, the amount of residual starting material in the WT ClbP reaction was 25-75% of the amount in the S95A ClbP and no-enzyme conditions. In a non-preferred case, the amount of residual starting material in the WT ClbP reaction was >75% of the amount in the S95A ClbP and no-enzyme conditions.
# Formation of the anticipated product was likewise quantified by LCMS analysis and confirmed by coelution with an external product standard. In an ideal case, the amount of product formed in the WT ClbP reaction corresponded to >75% of the theoretical maximum. In an acceptable case, the amount of product formed in the WT ClbP reaction corresponded to 25-75% of the theoretical maximum. In a non-preferred case, the amount of product formed in the WT ClbP reaction corresponded to <25% of the theoretical maximum.
# [2] = test system: E. coli BL21(DE3); experiment: Payload release in the presence of fecal matter, ClbP negative E. coli; assay type: cell-based; settings: 10 μM compound, anaerobic, 37° C., 20 h, LCMS
# From the text: (§1) This example is representative of the methods described in Example 103. Fecal samples were subjected to metagenomic whole-genome shotgun sequencing followed by querying the dataset for the presence of the clbP gene or by attempting to amplify the gene with primers specific for it by qPCR. Samples that gave a signal below the detection limit were used in subsequent steps. The fecal sample was resuspended as a 15% (w/v) slurry in Anaerobic Phosphate Buffer Saline.
# (§2) Following steps 1 and 2 as detailed in Example 98, E. coli CFT073 ATCC 700928, E. coli Nissle 1917, or E. coli BL21(DE3) were grown in liquid culture.
# (§3) In an anaerobic chamber, the E. coli strains were added to the fecal samples obtained in step 1 at a dilution level calculated to represent 0, 1, 10, 50, 90, 99, or 100% of all organisms present in PRAS dilution blank on a 200 μL volume. The test compound (10 μM final concentration) was added to the mixture. The test compound was also added to a bacteria-free media control under similar conditions. The plate was sealed and incubated at 37° C. for 20 h. Under similar conditions, a standard curve of both the starting material and the payload compound was made in bacteria-free media.
# (§4) After 20 h, an aliquot was tested for breakdown and release of a payload by LCMS by diluting serially to a final dilution of 1:100 first with Acetonitrile (10× dilution) and then with (1:1) Mobile Phase A-0.1% Formic Acid in Water:Mobile Phase B-0.1% Formic acid in Acetonitrile (1 OX dilution), with absolute quantification compared to the external standard curve. In an ideal case, the amount of payload released in the reaction(s) with ClbP-encoding E. coli was >75% of the theoretical maximum, and none was released in the E. coli BL21(DE3) and media-alone conditions. In an acceptable case, the amount of payload released in the reaction(s) with ClbP-encoding E. coli was 25-75% of the theoretical maximum, and <25% of the theoretical maximum was released in the E. coli BL21(DE3) and media-alone conditions. In a non-preferred case, the amount of payload released in the reactions(s) with ClbP-encoding E. coli was <25% of the theoretical maximum, and >25% of the theoretical maximum was released in the E. coli BL21(DE3) and media-alone conditions.
# [3] = test system: E. coli Nissle 1917; experiment: Payload release in the presence of fecal matter, ClbP positive E. coli; assay type: cell-based; settings: 10 μM compound, anaerobic, 37° C., 20 h, LCMS
# From the text: as §1, §2, §3, §4
compound,measurement,setting,value
"CCCCCCCCCCCCCC(=O)N[C@H](CC(N)=O)C(=O)N[C@@H](C)C(=O)OC [Example 1, Methyl tetradecanoyl-D-asparaginyl-L-alaninate] (Myristoyl-[dN]-Ala-OMe)",Status (compound remaining in WT ClbP reaction relative to no-enzyme control),[1]; 500 μM compound,− (>75% compound remaining in the 20 μM WT ClbP reaction relative to the no-enzyme control)
"CCCCCCCC(=O)N[C@H](CC(N)=O)C(=O)N[C@@H](C)C(=O)OC [Example 2, Methyl octanoyl-D-asparaginyl-L-alaninate] (Octanoyl-[dN]-Ala-OMe)",Status (compound remaining in WT ClbP reaction relative to no-enzyme control),[1]; 100 μM compound,++ (<25% compound remaining in the 20 μM WT ClbP reaction relative to the control)
"CCCCCCCC(=O)N[C@@H](CC(N)=O)C(=O)N[C@@H](C)C(=O)OC [Example 4, Methyl octanoyl-L-asparaginyl-L-alaninate] (Octanoyl-Asn-Ala-OMe)",Status (compound remaining in WT ClbP reaction relative to no-enzyme control),[1]; 500 μM compound,− (>75% compound remaining in the 20 μM WT ClbP reaction relative to the no-enzyme control)
"CCCCCCCC(=O)N[C@H](CC(N)=O)C(=O)N[C@H](C)C(=O)OC [Example 5, Methyl octanoyl-D-asparaginyl-D-alaninate] (Octanoyl-[dN]-[dA]-OMe)",Status (compound remaining in WT ClbP reaction relative to no-enzyme control),[1]; 100 μM compound,++ (<25% compound remaining in the 20 μM WT ClbP reaction relative to the control)
"CCCCCCCC(=O)N[C@H](CC(N)=O)C(=O)N[C@H](C(=O)OC)C(C)C [Example 6, Methyl octanoyl-D-asparaginyl-L-valinate] (Octanoyl-[dN]-Val-OMe)",Status (compound remaining in WT ClbP reaction relative to no-enzyme control),[1]; 100 μM compound,++ (<25% compound remaining in the 20 μM WT ClbP reaction relative to the control)
"CCCCCCCC(=O)N[C@H](CC(N)=O)C(=O)N[C@@H](CC(C)C)C(=O)OC [Example 7, Methyl octanoyl-D-asparaginyl-L-leucinate] (Octanoyl-[dN]-Leu-OMe)",Status (compound remaining in WT ClbP reaction relative to no-enzyme control),[1]; 100 μM compound,++ (<25% compound remaining in the 20 μM WT ClbP reaction relative to the control)
"CCCCCCCC(=O)N[C@H](CCC(=O)O)C(=O)N[C@@H](C)C(=O)OC [Example 9, (R)-5-(((S)-1-methoxy-1-oxopropan-2-yl)amino)-4-octanamido-5-oxopentanoic acid] (Octanoyl-[dE]-Ala-OMe)",Status (compound remaining in WT ClbP reaction relative to no-enzyme control),[1]; 100 μM compound,− (>75% compound remaining in the 20 μM WT ClbP reaction relative to the no-enzyme control)
"CCCCCCCC(=O)N[C@H](CCC(N)=O)C(=O)N[C@@H](C)C(=O)OC [Example 10, Methyl octanoyl-D-glutaminyl-L-alaninate] (Octanoyl-[dQ]-Ala-OMe)",Status (compound remaining in WT ClbP reaction relative to no-enzyme control),[1]; 500 μM compound,− (>75% compound remaining in the 20 μM WT ClbP reaction relative to the no-enzyme control)
"CCCCCCCC(=O)N[C@H](CCCNC(=N)N)C(=O)N[C@@H](C)C(=O)OC [Example 11, Methyl octanoyl-D-arginyl-L-alaninate] (Octanoyl-[dR]-Ala-OMe)",Status (compound remaining in WT ClbP reaction relative to no-enzyme control),[1]; 500 μM compound,− (>75% compound remaining in the 20 μM WT ClbP reaction relative to the no-enzyme control)
"COC(=O)[C@H](C)NC(=O)[C@@H](CC(N)=O)NC(=O)[C@@H](C)c1ccc2cc(OC)ccc2c1 [Example 18, Methyl ((S)-2-(6-methoxynaphthalen-2-yl)propanoyl)-D-asparaginyl-L-alaninate]",Status (compound remaining in WT ClbP reaction relative to no-enzyme control),[1]; 100 μM compound,++ (<25% compound remaining in the 20 μM WT ClbP reaction relative to the control)
"CCCCCCCCCCCCCC(=O)N[C@H](CC(N)=O)C(=O)NCCCC(=O)OC [Example 20, Methyl (R)-4-(4-amino-4-oxo-2-tetradecanamidobutanamido)butanoate]",Status (compound remaining in WT ClbP reaction relative to no-enzyme control),[1]; 100 μM compound,− (>75% compound remaining in the 20 μM WT ClbP reaction relative to the no-enzyme control)
"CCCCCCCCCCCCCC(=O)N[C@H](CC(N)=O)C(=O)N[C@@H](C)CCC(=O)OC [Example 21, Methyl (S)-4-((R)-4-amino-4-oxo-2-tetradecanamidobutanamido)pentanoate]",Status (compound remaining in WT ClbP reaction relative to no-enzyme control),[1]; 100 μM compound,+ (between 25-75% compound remaining in the 20 μM WT ClbP reaction relative to the no-enzyme control)
"CCCCCCCCCCCCCC(=O)N[C@H](CC(N)=O)C(=O)Nc1ccc(COC)cc1 [Example 22, (R)—N1-(4-(methoxymethyl)phenyl)-2-tetradecanamidosuccinamide]",Status (compound remaining in WT ClbP reaction relative to no-enzyme control),[1]; 100 μM compound,+ (between 25-75% compound remaining in the 20 μM WT ClbP reaction relative to the no-enzyme control)
"CCCCCCCCCCCCCC(=O)N[C@H](CC(N)=O)C(=O)N[C@@H](C)CCC(=O)O[C@]1(CC)C(=O)OCc2c1cc1n(c2=O)Cc2c-1nc1ccc(O)cc1c2CC [Example 35, (S)-4,11-diethyl-9-hydroxy-3,14-dioxo-3,4,12,14-tetrahydro-1H-pyrano[3′,4′:6,7]indolizino[1,2-b]quinolin-4-yl (S)-4-((R)-4-amino-4-oxo-2-tetradecanamidobutanamido)pentanoate]",% payload released in ClbP negative (BL21 DE3) at 1:1 ratio of E. coli to fecal bacteria,[2],0.6%
same,% payload released in ClbP positive (Nissle 1917) at 1:1 ratio of E. coli to fecal bacteria,[3],0.9%
"CCCCCCCC(=O)N[C@H](CC(N)=O)C(=O)NCCN(C)C(=O)Oc1ccc2c(C)cc(=O)oc2c1 [Example 70, 4-methyl-2-oxo-2H-chromen-7-yl (R)-(2-(4-amino-2-octanamido-4-oxobutanamido)ethyl)(methyl)carbamate]",% payload released in ClbP negative (BL21 DE3) at 1:1 ratio of E. coli to fecal bacteria,[2],1.9%
same,% payload released in ClbP positive (Nissle 1917) at 1:1 ratio of E. coli to fecal bacteria,[3],25.1%
